# Laboratory results as given in patent US7304090B2, “Inhibition of the cystic fibrosis transmembrane conductance regulator chloride channel” (The University of Bristol, priority 2000, dated 2007).
# Experiments:
# wild-type human CFTR = molecular target: T1, wild-type human CFTR (Homo sapiens, UniProt P13569); assay: CFTR Cl− channels recorded in excised inside-out membrane patches from C127 cells (patch-clamp); type: biochemical; settings: for effect on CFTR Cl− currents: PKA and ATP present
# T1 construct: expressed in transfected cells
# Description: For electrophysiological experiments, we used mouse mammary epithelial cells (C127 cells) stably expressing wild-type human CFTR (12). C127 cells expressing wild-type CFTR were cultured as previously described (10). Cells were seeded onto glass coverslips and used within 48 h.
# The established sign convention was used throughout; currents produced by positive charge moving from intra- to extracellular solutions (anions moving in the opposite direction) are shown as positive currents.
# […] […] All experiments were conducted at 37° C.
# PKA was maintained in the intracellular solution for the duration of experiments. Unless otherwise stated, voltage was −50 mV.
# In time course studies, each point is the average current for a 4 s period with data points collected continuously; no data were collected while solutions were changed. Average current (I) for a specific intervention was determined as the average of all the data points collected during the intervention. […] Mean data were fitted to a linear form of equation (1) using linear least-squares regression to yield Ki and n values.
# To measure single-channel current amplitude (i), Gaussian distributions were fitted to current amplitude histograms. For open probability (Po) and kinetic analyses, lists of open and closed times were created using a half-amplitude crossing criterion for event detection. Transitions <1 ms in duration were excluded from the analyses. Po was calculated using the equation: Po=(T1+T2+ . . . +TN)/(NTtot), (2) where N is the number of channels; Ttot is the total time analysed, and T1 is the time that one or more channels are open, T2 is the time two or more channels are open and so on. Only membrane patches that contained a single active channel were used for single-channel kinetic analyses.
# To investigate whether inhibition of CFTR by fluorescein derivatives was voltage dependent, we used voltage ramp protocols. Macroscopic current-voltage (I-V) relationships were obtained in the absence and presence of fluorescein derivatives by averaging currents generated by 15-30 ramps of voltage each of 2 s duration; holding voltage was −50 mV. Basal currents recorded in the absence of PKA and ATP were subtracted from those recorded in the absence and presence of fluorescein derivatives to determine the effect of these agents on CFTR Cl^− currents.
# [1] = test system: Type I Madin-Darby canine kidney (MDCK) cells; assay: Cyst growth of MDCK cells in collagen gels with cAMP agonists; type: cell-based; settings: 40 μM; days 12 to 21
# Description: (§1) For cyst growth and cell proliferation experiments, we used Type I Madin-Darby canine kidney (MDCK) cells. We chose Type I MDCK cells because they form cysts when grown in collagen gels in the presence of cAMP agonists (26) and because they express the CFTR Cl^− channel (27). MDCK cells were cultured in MDCK media (a 1:1 mixture of Dulbecco's Modified Eagle Medium (DMEM) and Ham's F-12 nutrient medium supplemented with 100 U ml^−1 penicillin, and 100 μg ml^−1 streptomycin and either 10% fetal bovine serum (FBS; cyst growth) or 5% FBS and 1% insulin-transferrin-selenium-X (ITS-X) supplement (cell proliferation); all from Life Technologies Ltd, Paisley, UK) at 37° C. in a humidified atmosphere of 5% CO2.
# To grow cysts, MDCK cells were cultured in collagen gels using a modification of the method of Grantham et al. (26). Cells were trypsinized with 0.25% (wt/vol) trypsin for 30 minutes at 37° C., diluted with MDCK media containing 10% FBS to form a suspension of between 1-3×10^4 cells ml^−1, and aliquoted into individual wells of a 24-well plate (0.1 ml per well). Each well contained 0.4 ml of ice-cold Vitrogen (3.0 mg ml^−1 collagen; Cohesion Technologies Inc., Palo Alto, USA) supplemented with 10% (vol/vol) 10× minimum essential medium, 10 mM N-[2-hydroxyethyl]piperazine-N′-[2-ethanesulphonic acid] (Hepes), 27 mM NaHCO3, 100 U ml^−1 penicillin, and 100 μg ml^−1 streptomycin, and adjusted to pH 7.4 with NaOH. The 24-well plate was gently agitated to distribute cells throughout the Vitrogen and incubated in a water bath at 37° C. for 90 minutes to promote gelation of the Vitrogen.
# After gelation, 1.5 ml MDCK media containing 10% FBS was added to each well of the 24-well plate. To promote cyst growth, we added cAMP agonists (forskolin (10 μM), 3-isobutyl-1-methylxanthine (IBMX; 100 μM), and 8-(4-chlorophenylthio) adenosine 3′:5′-cyclic monophosphate (CPT-cAMP; 500 μM)) to the MDCK media. Plates were maintained at 37° C. in a humidified atmosphere of 5% CO2 and the MDCK media containing cAMP agonists changed every three days.
# Twelve days after seeding collagen gels with MDCK cells, cysts were readily detected at ×1000 magnification using an inverted microscope with phase contrast optics (Leica, model DMIL, Milton Keynes, UK). To test the effect of CFTR modulators on cyst growth, drugs were added to MDCK media in the continued presence of cAMP agonists. MDCK media containing cAMP agonists and CFTR modulators was changed every 3 days for a total period of 9 days. Photographs of individual cysts were taken before the addition of CFTR modulators and at three day intervals over the duration of the experiment. To identify individual cysts, each cyst was assigned a unique reference number using a grid placed below the 24-well plate.
# The diameter of cysts was measured directly from photographs of cysts using images that had been magnified by identical amounts. By assuming that cysts are spherical in shape, we calculated cyst volume ( 4/3·π·r^3).
# Type I MDCK cells = assay: Proliferation of MDCK cells (cell counting); type: cell-based, canine
# Description: as §1
# To test the effect of CFTR modulators on the proliferation of MDCK cells, we used Type I MDCK cells grown in media containing 5% FBS and 1% ITS-X supplement. On day −1, MDCK cells were seeded at 7.5×10^4 cells ml^−1 in 35 mm dishes containing MDCK media with 1% FBS and 1% ITS-X supplement. On day 0, the concentration of FBS was reduced further to 0.01% and CFTR modulators added to the MDCK media. MDCK media containing CFTR modulators was changed every 2 days for a total period of 6 days. To determine the number of cells per 35 mm dish, Type I MDCK cells were harvested using trypsin (0.25% wt/vol), centrifuged at 1200 rpm for 5 min and resuspended in 1 ml of MDCK media before counting using a haemocytometer.
# T1 sequence (P13569 whole entry): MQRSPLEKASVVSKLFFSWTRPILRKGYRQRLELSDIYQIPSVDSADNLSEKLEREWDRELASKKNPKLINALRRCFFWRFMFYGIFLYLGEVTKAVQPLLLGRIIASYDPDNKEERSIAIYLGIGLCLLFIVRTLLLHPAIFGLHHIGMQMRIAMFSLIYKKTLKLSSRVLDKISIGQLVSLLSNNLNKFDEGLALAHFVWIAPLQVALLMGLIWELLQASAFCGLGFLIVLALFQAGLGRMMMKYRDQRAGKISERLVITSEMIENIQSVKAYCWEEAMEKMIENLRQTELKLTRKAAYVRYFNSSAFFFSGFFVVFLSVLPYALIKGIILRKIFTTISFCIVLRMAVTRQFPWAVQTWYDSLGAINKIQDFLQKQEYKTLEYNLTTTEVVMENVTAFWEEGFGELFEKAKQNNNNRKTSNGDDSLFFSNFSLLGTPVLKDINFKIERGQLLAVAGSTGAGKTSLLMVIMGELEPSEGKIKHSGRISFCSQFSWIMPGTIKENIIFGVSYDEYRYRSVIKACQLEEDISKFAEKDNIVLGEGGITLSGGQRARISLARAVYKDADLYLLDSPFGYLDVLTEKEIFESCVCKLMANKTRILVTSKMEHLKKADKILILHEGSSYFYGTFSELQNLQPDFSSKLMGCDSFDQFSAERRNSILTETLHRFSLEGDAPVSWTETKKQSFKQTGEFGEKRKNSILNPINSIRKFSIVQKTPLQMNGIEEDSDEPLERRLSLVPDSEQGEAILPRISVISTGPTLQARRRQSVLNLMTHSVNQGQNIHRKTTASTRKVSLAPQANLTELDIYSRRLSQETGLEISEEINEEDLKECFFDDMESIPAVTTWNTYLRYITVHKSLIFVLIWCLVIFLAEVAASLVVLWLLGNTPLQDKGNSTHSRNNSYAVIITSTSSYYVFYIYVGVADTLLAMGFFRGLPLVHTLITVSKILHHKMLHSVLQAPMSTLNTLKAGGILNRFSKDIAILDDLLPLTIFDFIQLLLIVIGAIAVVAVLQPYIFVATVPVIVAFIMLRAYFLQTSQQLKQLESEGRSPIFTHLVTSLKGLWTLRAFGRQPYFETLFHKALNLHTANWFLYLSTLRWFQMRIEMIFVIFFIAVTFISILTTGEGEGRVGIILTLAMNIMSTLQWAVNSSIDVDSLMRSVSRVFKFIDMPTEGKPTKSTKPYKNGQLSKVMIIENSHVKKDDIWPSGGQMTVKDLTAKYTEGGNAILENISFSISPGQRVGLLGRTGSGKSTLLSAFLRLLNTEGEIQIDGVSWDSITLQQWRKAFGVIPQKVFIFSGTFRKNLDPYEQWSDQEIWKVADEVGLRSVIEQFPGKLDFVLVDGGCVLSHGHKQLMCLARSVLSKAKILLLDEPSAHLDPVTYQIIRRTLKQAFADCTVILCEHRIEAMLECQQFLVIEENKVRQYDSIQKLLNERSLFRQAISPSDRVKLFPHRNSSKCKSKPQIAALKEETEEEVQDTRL
smiles,measurement,setting,value
O=C(O)c1c(Cl)c(Cl)c(Cl)c(Cl)c1-c1c2cc(Br)c(=O)c(Br)c-2oc2c(Br)c(O)c(Br)cc12 [phloxine B],"n (slope factor, Hill coefficient) of CFTR inhibition",wild-type human CFTR,2
same,potency of CFTR inhibition compared with glibenclamide,wild-type human CFTR,potency greater than or equal to that of glibenclamide
same,reversibility of CFTR inhibition,wild-type human CFTR,partially reversible
same,effect of ATP (5 mM) on inhibition of CFTR Cl− currents,wild-type human CFTR; 20 μM,fails to relieve
same,pattern of channel gating,wild-type human CFTR; 20 μM,dramatically altered the pattern of channel gating
same,open probability (Po),"wild-type human CFTR; 20 μM, P<0.05 vs control",significantly decreased
same,single-channel current amplitude (i),"wild-type human CFTR; 20 μM, P<0.05 vs control",significantly decreased
same,channel block at positive voltages,"wild-type human CFTR; 40 μM, symmetrical 147 mM Cl−",relieved
same,effect on CFTR Cl− currents at negative voltages,"wild-type human CFTR; 40 μM, symmetrical 147 mM Cl−",decreased CFTR Cl^− currents
same,effect on CFTR Cl− currents,wild-type human CFTR; 1-5 μM in intracellular solution,stimulated
same,effect on CFTR Cl− currents,wild-type human CFTR; 20-50 μM in intracellular solution,concentration-dependent decrease
same,rank order of potency for CFTR inhibition,"wild-type human CFTR; concentration-response, FIG. 3",bengal rose B>phloxine B>eosin Y≧tetrachlorofluorescein>>fluorescein
same,stimulation of CFTR channel activity,"wild-type human CFTR; concentration-response, FIG. 3",stimulated channel activity
same,effect on activity of CFTR Cl− channels,wild-type human CFTR; in the absence of either ATP or PKA,without effect
same,effect on channel block by glibenclamide (50 μM),wild-type human CFTR; phloxine B 1 μM,failed to prevent channel block
same,I (average CFTR Cl− current) relative to control,wild-type human CFTR; phloxine B 20 μM together with glibenclamide 50 μM,10±2 % of the control value
same,I (average CFTR Cl− current) relative to control,"wild-type human CFTR; phloxine B 20 μM, ATP 5 mM",51±5 % of the control value
same,I (average CFTR Cl− current) relative to control,"wild-type human CFTR; phloxine B 20 μM, […]",56±6 % of the control value
same,I (average CFTR Cl− current) relative to control,"wild-type human CFTR; phloxine B 20 μM, […], listed as Phloxine B",59±4 % of the control value
same,voltage-dependence of CFTR inhibition,"wild-type human CFTR; voltage ramp ±100 mV, symmetrical 147 mM Cl−, ATP 1 mM",voltage-dependent
same,size of cysts (phase-contrast),[1],visible decrease in the size of cysts
same,inhibition of cell growth in the presence of cAMP agonists,Type I MDCK cells,unaffected by cAMP agonists
same,rank order of prevention of cell growth,Type I MDCK cells,ouabain (1 μM)=phloxine B (40 μM)=genistein (100 μM)=NPPB (400 μM)>glibenclamide (100 μM)
same,"cell growth (number of cells), day 0 to 6",Type I MDCK cells; 40 μM,prevented cell growth
